Results taken from patent publication US12642870B2, “Compositions and methods for delivery of nucleic acids” (Poseida Therapeutics, Inc., priority 2020, dated 2026).

How the values were obtained:
[1] = system: HEK293T cells; assay: In vitro lipoplex nanoparticle delivery of eGFP mRNA to adherent cells; type: cell-based
Method: HEK293T cells were seeded in 96 well plates and grown to 70% confluence in [DMEM+10% FBS under a 5% CO2 atmosphere at 37° C. Lipoplex nanoparticles comprising COMPOUND 1 and 0.007, 0.03, 0.125, and 0.50 μg mRNA encoding eGFP were added to the cells. Following incubation with the lipoplex nanoparticles, cells were assessed for GFP expression by epifluorescence microscopy and flow cytometry.

[2] = Agarose gel electrophoresis for nucleic acid incorporation; type: physicochemical; conditions: 1% agarose gel, SYBR Safe, naked mRNA control
Method: The LNP compositions were analyzed to verify the presence of mRNA. An aliquot of each of the LNP compositions was loaded on to a 1% agarose gel with a size standard and naked mRNA control, subject to electrophoresis and the presence of mRNA was detected by exposure of ultraviolet light to excite the fluorophore (SYBR Safe) which is complexed with nucleic acid. The free mRNA migrated in the gel in accordance with its molecular weight whereas all of the mRNA-containing LNP compositions remained at the interface of the agarose gel and the well with little to no detectable free mRNA indicating the LNP compositions comprising COMPOUND 1 of Example 1 were capable of incorporating mRNA.

[3] = Physical characterisation of mRNA-containing LNPs (DLS, NTA, zeta potential); type: physicochemical; conditions: Fluc mRNA LNPs: compound/DOPE/Cholesterol/DMG-PEG2000 41.44/45.85/10/2.7, lipid:RNA 40:1 (w/w)
Method: A series of ten multi-component LNP compositions of the present disclosure comprising exemplary compounds of Formula (I) was prepared by combining various percentages of an exemplary compound of Formula (I), the phospholipid DOPE, the structural lipid cholesterol (Chol) and 1,2-dimyristoyl-sn-glycerol methoxypolyethylene glycol (DMG-PEG2000; Avanti Polar Lipids, Alabaster, Alabama, USA).
Individual 25 mg/ml stock solutions were prepared by solubilizing the lipids in 200-proof HPLC-grade ethanol and stock solutions were stored at −80° C. until formulated. At the time of formulation, the lipid stock solutions were briefly allowed to equilibrate to room temp and then placed on a hot plate maintained at a temperature range of 50-55° C.
A 1 mg/mi solution of the desired mRNA to be incorporated into the LNPs was added to 150 mM sodium acetate buffer (pH 5.2) to form a stock solution and kept on ice. The lipid phase was mixed with the aqueous m RNA phase inside a microfluidic chip using a NanoAssemblr® instrument (Precision Nanosystems, Vancouver, BC, Canada) according to the manufacturer's instructions to form LNP compositions comprising encapsulated mRNAs.
The resultant mRNA LNP compositions were then transferred to a Repligen Float-A-Lyzer dialysis device—having a molecular weight cut off (MWCO) of 8-10 kDa (Spectrum Chemical Mfg. Corp, CA, USA) and processed by dialysis against phosphate buffered saline (PBS) (dialysate:dialysis buffer volume at least 1:200 v/v), pH 7.4 overnight at 4° C. (or alternatively room temperature for at least 4 hours), to remove the 25% ethanol and achieve a complete buffer exchange. In some experiments the LNPs were further concentrated by in an Amicon® Ultra-4 centrifugal filter unit, MWCO-30 kDa (Millipore Sigma, USA) spun at ˜4100×g in an ultracentrifuge. The mRNA LNPs were then stored at 4° C. until further use.
A series of multicomponent LNP compositions comprising one of COMPOUNDS 1-8 described in Example 1 and the mRNA encoding flue was prepared according to Example 2 and the physical characteristics of the resulting LNPs were analyzed.
In a separate experiment, LNP compositions of the present disclosure comprising mRNA encoding firefly luciferase (hereafter “Fluc”; TriLink) and COMPOUNDS 1-8 were prepared as described in Example 2 by combining one of COMPOUNDS 1-8, the phospholipid DOPE, the structural lipid cholesterol (Chol) and 1,2-dimyristoyl-sn-glycerol methoxypolyethylene glycol (DMG-PEG2000) in the percentages presented in Table 8: […]

[4] = system: Resting T-cells; assay: LNP delivery of eGFP mRNA to resting T-cells; type: cell-based; conditions: eGFP mRNA LNPs 0.4144:0.4585:0.1:0.027, lipid:nucleic acid 40:1, 0.5 ug mRNA per well, 24 hrs
Method: In one experiment, LNPs of the present disclosure comprising one of COMPOUNDS 1-4, DOPE, Cholesterol and DMG-PEG2000 at a molar ratio of 0.4144:0.4585:0.1:0.027 and further comprising Cleancap mRNA encoding eGFP were formed on a NanoAssemblr® (Precision Nanosystems). […] Resting T-cells were treated with varying amounts of the four LNP composition and at 24 hrs, the cells were analyzed to determine the percentage of cells that were viable and that expressed […]. The results of the analysis are shown in Table 12 for a dose of 0.5 ug mRNA per well.

[5] = system: Resting T-cells; assay: LNP delivery of nano-pB-EF1a-GFP DNA to resting T-cells; type: cell-based; conditions: nano-pB-EF1a-GFP DNA LNPs 0.38:0.5:0.1:0.02, lipid:nucleic acid 45:1, 24 hr
From the text: The experiments described in this example used CD4/CD8 positive T-cells isolated from a leukapheresis product from a healthy donor.

[6] = Physical characterisation of DNA-containing LNPs (DLS, NTA, zeta potential); type: physicochemical; conditions: nano-pB-EF1a-GFP DNA LNPs: compound/DOPE/Cholesterol/DMG-PEG2000 38.0/50.0/10.0/2.0, lipid:DNA 45:1 (w/w)
Method: LNP compositions of the present disclosure comprising DNA, a nanoplasmid encoding a piggyBac transposon, wherein the piggyBac transposon comprised GFP under control of the EF1a promoter (herein referred to as the nano-pB-EF1a-GFP), and one of COMPOUNDS 1-8 were prepared as described in Example 3 by combining one of COMPOUNDS 1-8, the phospholipid DOPE, the structural lipid cholesterol (Chol) and 1,2-dimyristoyl-sn-glycerol methoxypolyethylene glycol (DMG-PEG2000) in the following percentages in Table 20: […]

[7] = system: HEK293T cells; assay: In vitro LNP delivery of eGFP mRNA to adherent cells; type: cell-based; conditions: 0.125 μg eGFP mRNA per well, 24 hr, flow cytometry, LNP 41.44/45.85/10.0/2.7, lipid:RNA 40:1
Method: HEK293T cells were seeded in 96 well plates and grown to 70% confluence in DMEM+10% FBS] under a 5% CO2 atmosphere at 37° C. A 0.125 μg amount of 5′-CleanCap-eGFP mRNA (TriLink Biotech) formulated with LNP compositions comprising COMPOUNDS 1-4 as prepared in Example 3 at the following percentages in Table 10 was added to each well.
After incubating for 24 hr, cells were imaged for GFP expression with a Leica fluorescence microscope and then detached from 96 well plate to quantitate expression by flow cytometry.

[8] = Average diameter of lipoplex nanoparticles comprising eGFP mRNA (DLS or NTA); type: physicochemical; conditions: lipoplex nanoparticles comprising eGFP mRNA and COMPOUND 1, both methods
Method: Lipoplex nanoparticles were formulated using solvent injection method. In brief, a multivalent cationic bolaform amphiphilic lipid (4.0 mg) was dissolved in dimethyl sulfoxide (1 mL) to obtain 4 mg/mL solution. The solution was heated for 15 min at 40° C. to dissolve the lipid. DNA or mRNA (0.040 mg) was diluted with 50 mM Sodium acetate buffer (2 mL, pH 5.5) to obtained 0.02 mg/mL solution. Bolamphiphile lipid solution (0.4 mg, 100 p1) was injected in DNA or mRNA solution (0.04 mg, 2 mL) under constant sonication. The mass ratio of […] was kept constant to 10 for all the bolamphiphile formulation. The sonication was continued for 5 min. The solution was dialyzed (MWCO 30 kDa) for 4-6 hours in PBS (1×, pH 7.4) at room temperature. Sample was concentrated using Amicon centrifuge tube (30 kDa) to get the desired concentration for subsequent in vivo or in vitro use.
Lipoplex nanoparticles were prepared comprising mRNA encoding eGFP using COMPOUND 1 according to the method above and the average diameter of the resulting nanoparticles was determined by DLS or NTA. Both methods yielded average diameters of about 120 nm and the presence of RNA in the nanoparticle was confirmed by gel electrophoresis as described in Example 3.

With CC(C)C(CCC(C)C(CCC1CCC(C(=O)NCCCCCCNC(=O)C2CCC(CCC(SCCN(C)C)C(C)CCC(SCCN(C)C)C(C)C)C(SCCN(C)C)C2)CC1SCCN(C)C)SCCN(C)C)SCCN(C)C (stereo not shown) [Compound 1] the “% GFP” value ([1]; lipoplex nanoparticles comprising COMPOUND 1, 0.007 μg mRNA) was 0.99%, the “% GFP” value ([1]; lipoplex nanoparticles comprising COMPOUND 1, 0.03 μg mRNA) was 7.37% and the “% GFP” value ([1]; lipoplex nanoparticles comprising COMPOUND 1, 0.125 μg mRNA) was 30.1%. The “% GFP” value ([1]; lipoplex nanoparticles comprising COMPOUND 1, 0.50 μg mRNA) was 56.1%, the “incorporation of mRNA into the nanoparticle compositions by gel electrophoresis” value [2] was “confirmed” and the “Diameter (DLS; nm)” value [3] was 155.1 nm. The “Diameter (NTA; nm)” value [3] was 126.5 nm, the PDI [3] was 0.174 and the “Total Particles/ml” value [3] was 1.66E+11 Particles/ml. The “Zeta Potential (mV)” value [3] was 1.41 mV, the “% Viable GFP+” value [4] was 9.5% and the “% Viable GFP+” value [5] was 35.2%. For the same compound, the “Diameter (DLS; nm)” value [6] was 123.5 nm, the “Diameter (NTA; nm)” value [6] was 96.9 nm and the PDI [6] was 0.17. The “Total Particles/ml” value [6] was 5.76E+11 Particles/ml, the “Zeta Potential (mV)” value [6] was 0.67 mV and the “% Viable GFP+” value [7] was 23.5%. For the same compound, the “average diameter of lipoplex nanoparticles” value [8] was “about 120 nm”.
